In patent US20170253607A1, “LONG-ACTING HIV PROTEASE INHIBITOR” (Shionogi & Co., Ltd., priority 2014, published 2017):

Legend:
HIV-1 PR = HIV-1 PR (Human immunodeficiency virus type 1 group M subtype B, UniProt P04585); assay: HIV-protease inhibitory activity assay (FRET peptide substrate); format: biochemical; conditions: Test Example 1
Method in brief: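 Compounds were preincubated with HIV-1 PR (0.83 ng) at room temperature in pH 4.8 NaAc buffer (0.5 M NaCl, EDTA, DTT, Tween 20), then HiLyte Fluor 488/QXL 520 FRET peptide (2 μmol/L final) was added for 60 min. Fluorescence was read at 485/535 nm, and IC50 was fitted by four-parameter logistic regression.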

[1] = Evaluation of total body clearance (CLtot), intravenous administration; format: in vivo, Sprague-Dawley (SD); conditions: rat (SD), intravenous administration 0.5-10 mg/kg; CLtot = dose/AUC
Protocol: Dose: Intravenous administration with designated doses was selected. (Doses were changed depending on compounds.) • 0.5-10 mg/kg (n=2-3) Preparation of dosing formulation: The dosing solution was prepared by dissolving in an adequate solvent. Administration method: The dosing solution was injected into the tail vein by a syringe with a needle Blood sampling: The blood was collected at the scheduled time and obtained the plasma. Plasma concentrations of the compound were measured by LC/MS/MS. Statistical analysis: Area under the plasma concentration-time curve (AUC) of the compound was calculated by pharmacokinetic analysis software, WinNonlin™ and CLtot was calculated by dividing the dose by AUC.

Compound	IC50 (HIV-1 PR) [nM]	rat_CLt [1] [mL/min/kg]
COc1ccc(S(=O)(=O)N(CC(C)C)CC(O)C(Cc2ccc(NCC3CCCC3c3sc4c(c3C(=O)O)CC(C)(C)CC4)cc2)NC(=O)OC2COC3OCCC23)cc1 (stereo not drawn) [Compound I-877]	2.12	2.31
COc1ccc(S(=O)(=O)N(CC(C)C)CC(O)C(Cc2ccc(NCc3cc([N+](=O)[O-])ccc3-c3sc4c(c3C(=O)O)CC(C)(C)CC4)cc2)NC(=O)OC2COC3(C)OCCC23)cc1 (stereo not drawn) [Compound I-567]	3.12	2.81
COc1ccc(S(=O)(=O)N(CC(C)C)CC(O)C(Cc2ccc(N(C)Cc3cc4ccccc4cc3-c3sc4c(c3C(=O)O)CC(C)(C)CC4)cc2)NC(=O)OC2COC3(C)OCCC23)cc1 (stereo not drawn) [Compound I-582]	9.36	0.179
COc1ccc(S(=O)(=O)N(CC(C)C)CC(O)C(Cc2ccc(NCc3ccc(Cl)cc3-c3sc4c(c3C(=O)O)CC(C)(C)CC4)cc2)NC(=O)OC2COC3(C)OCCC23)cc1 (stereo not drawn) [Compound I-563]	2.13	0.883
COc1ccc(S(=O)(=O)N(CC(C)C)CC(O)C(Cc2ccc(NCc3ccc(OC)cc3C(=O)Nc3sc4c(c3C(=O)O)CC(C)(C)CC4)cc2)NC(=O)OC2COC3(C)OCCC23)cc1 (stereo not drawn) [Compound I-580]	3.23	0.0683
COc1ccc(S(=O)(=O)N(CC(C)C)CC(O)C(Cc2ccc(NCc3ccccc3-c3sc4c(c3C(=O)O)CC(C)(C)CC4)cc2)NC(=O)OC2COC3OCCC23)cc1 (stereo not drawn) [Compound I-852]	1.99	2.25
CC(C)CN(CC(O)C(Cc1ccc(NCc2ccccc2-c2sc3c(c2C(=O)O)CC(C)(C)CC3)cc1)NC(=O)OC1COC2(C)OCCC12)S(=O)(=O)c1ccc2c(c1)OCO2 (stereo not drawn) [Compound I-465]	2.97	0.675
COc1ccc(S(=O)(=O)N(CC(C)C)CC(O)C(Cc2ccc(NCc3cc4c(cc3-c3sc5c(c3C(=O)O)CC(C)(C)CC5)OCCO4)cc2)NC(=O)OC2COC3(C)OCCC23)cc1 (stereo not drawn) [Compound I-651]	2	0.536
CC(C)CN(CC(O)C(Cc1ccc(NCc2ccccc2-c2sc3c(c2C(=O)O)CC(C)(C)CC3)cc1)NC(=O)OC1COC2(C)OCCC12)S(=O)(=O)c1ccc2ncsc2c1 (stereo not drawn) [Compound I-467]	2.42	2.36
CC1(C)CCc2sc(-c3ccccc3CNc3ccc(CC(NC(=O)OC4COC5(C)OCCC45)C(O)CN(CC4CCCC4)S(=O)(=O)c4ccc5c(c4)OCO5)cc3)c(C(=O)O)c2C1 (stereo not drawn) [Compound I-484]	2.43	1.58
CN(Cc1ccccc1C(=O)Nc1sc2c(c1C(=O)O)CC(C)(C)CC2)c1ccc(CC(NC(=O)OC2COC3(C)OCCC23)C(O)CN(CC2CCCC2)S(=O)(=O)c2ccc3ncsc3c2)cc1 (stereo not drawn) [Compound I-636]	4.37	0.372
COc1ccc(S(=O)(=O)N(CC(C)C)CC(O)C(Cc2ccc(NCc3cc(OC)c(OC)cc3-c3sc4c(c3C(=O)O)CC(C)(C)CC4)cc2)NC(=O)OC2COC3(C)OCCC23)cc1 (stereo not drawn) [Compound I-560]	1.65	4.5
CC1(C)CCc2sc(NC(=O)c3ccccc3CNc3ccc(CC(NC(=O)OC4COC5(C)OCCC45)C(O)CN(CC4CCC4)S(=O)(=O)c4ccc5ncsc5c4)cc3)c(C(=O)O)c2C1 (stereo not drawn) [Compound I-617]	3.13	0.098
COc1ccc(S(=O)(=O)N(CC(C)C)CC(O)C(Cc2ccc(N3CCC(Oc4ccccc4C(=O)Nc4sc5c(c4C(=O)O)CC(C)(C)CC5)C3)cc2)NC(=O)OC2COC3(C)OCCC23)cc1 (stereo not drawn) [Compound I-588]	3.29	0.291
COc1ccc(S(=O)(=O)N(CC(C)C)CC(O)C(Cc2ccc(N(C)Cc3occc3-c3sc4c(c3C(=O)O)CC(C)(C)CC4)cc2)NC(=O)OC2COC3(C)OCCC23)cc1 (stereo not drawn) [Compound I-492]	1.84	17.3
CC1(C)CCc2sc(NC(=O)c3ccccc3CNc3ccc(CC(NC(=O)OC4COC5OCCC45)C(O)CN(CC4CCC4)S(=O)(=O)c4ccc5c(c4)OCO5)cc3)c(C(=O)O)c2C1 (stereo not drawn) [Compound I-861]	2.8	0.0804
COc1ccc(S(=O)(=O)N(CC(C)C)CC(O)C(Cc2ccc(N(CCCc3sc4c(c3C(=O)O)CC(C)(C)CC4)Cc3ccccc3)cc2)NC(=O)OC2COC3(C)OCCC23)cc1 (stereo not drawn) [Compound I-371]	10.5	4.69
COc1ccc(S(=O)(=O)N(CC(C)C)CC(O)C(Cc2ccc(NCc3cc(O)ccc3-c3sc4c(c3C(=O)O)CC(C)(C)CC4)cc2)NC(=O)OC2COC3(C)OCCC23)cc1 (stereo not drawn) [Compound I-561]	1.35	4.48

Compound	IC50 (HIV-1 PR) [nM]	rat_CLt [1] [mL/min/kg]
CC1(C)CCc2sc(NC(=O)c3ccccc3CNc3ccc(CC(NC(=O)OC4COC5(C)OCCC45)C(O)CN(CC4CCCC4)S(=O)(=O)c4ccc5ncsc5c4)cc3)c(C(=O)O)c2C1 (stereo not drawn) [Compound I-601]	3.26	0.164
CC1(C)CCc2sc(NC(=O)c3ccccc3CNc3ccc(CC(NC(=O)OC4COC5(C)OCCC45)C(O)CN(CC4CCCC4)S(=O)(=O)c4ccc5c(c4)OCO5)cc3)c(C(=O)O)c2C1 (stereo not drawn) [Compound I-600]	5.07	0.104
COc1ccc(S(=O)(=O)N(CC(C)C)CC(O)C(Cc2ccc(N(C)Cc3ccc(OC)cc3-c3sc4c(c3C(=O)O)CC(C)(C)CC4)cc2)NC(=O)OC2COC3(C)OCCC23)cc1 (stereo not drawn) [Compound I-490]	2.01	0.88
COc1ccc(S(=O)(=O)N(CC(C)C)CC(O)C(Cc2ccc(NCc3cocc3-c3sc4c(c3C(=O)O)CC(C)(C)CC4)cc2)NC(=O)OC2COC3(C)OCCC23)cc1 (stereo not drawn) [Compound I-528]	2.36	4.05
COc1ccc(S(=O)(=O)N(CC(C)C)CC(O)C(Cc2ccc(N(C)Cc3cc(N4CCCC4)ccc3-c3sc4c(c3C(=O)O)CC(C)(C)CC4)cc2)NC(=O)OC2COC3(C)OCCC23)cc1 (stereo not drawn) [Compound I-539]	2.91	0.156
COc1ccc(S(=O)(=O)N(CC(C)C)CC(O)C(Cc2ccc(N(C)Cc3cc(-c4sc5c(c4C(=O)O)CC(C)(C)CC5)co3)cc2)NC(=O)OC2COC3(C)OCCC23)cc1 (stereo not drawn) [Compound I-448]	2.31	5.28
CC1(C)CCc2sc(NC(=O)c3ccccc3CNc3ccc(CC(NC(=O)OC4COC5OCCC45)C(O)CN(CC4CCCC4)S(=O)(=O)c4ccc5ncsc5c4)cc3)c(C(=O)O)c2C1 (stereo not drawn) [Compound I-859]	3.41	0.2
COc1ccc(S(=O)(=O)N(CC(C)C)CC(O)C(Cc2ccc(NCC3=C(c4sc5c(c4C(=O)O)CC(C)(C)CC5)CCCCC3)cc2)NC(=O)OC2COC3(C)OCCC23)cc1 (stereo not drawn) [Compound I-524]	5.03	0.23
COc1ccc(S(=O)(=O)N(CC(C)C)CC(O)C(Cc2ccc(NCc3ncccc3C(=O)Nc3sc4c(c3C(=O)O)CC(C)(C)CC4)cc2)NC(=O)OC2COC3OCCC23)cc1 (stereo not drawn) [Compound I-882]	2.28	0.26
COc1ccc(S(=O)(=O)N(CC(C)C)CC(O)C(Cc2ccc(N(C)Cc3cccc(C)c3-c3sc4c(c3C(=O)O)CC(C)(C)CC4)cc2)NC(=O)OC2COC3(C)OCCC23)cc1 (stereo not drawn) [Compound I-599]	2.46	0.479
COc1ccc(S(=O)(=O)N(CC(C)C)CC(O)C(Cc2ccc(NCc3nc(N4CCCC4)sc3-c3ccc(-c4sc5c(c4C(=O)O)CC(C)(C)CC5)cc3)cc2)NC(=O)OC2COC3(C)OCCC23)cc1 (stereo not drawn) [Compound I-714]	4.5	0.0783
COc1ccc(S(=O)(=O)N(CC(C)C)CC(O)C(Cc2ccc(NCc3nc(N4CCCC4)sc3-c3sc4c(c3C(=O)O)CC(C)(C)CC4)cc2)NC(=O)OC2COC3(C)OCCC23)cc1 (stereo not drawn) [Compound I-607]	1.8	0.797
COc1ccc(S(=O)(=O)N(CC2CCCC2)CC(O)C(Cc2ccc(NCc3ccccc3-c3sc4c(c3C(=O)O)CC(C)(C)CC4)cc2)NC(=O)OC2COC3(C)OCCC23)cc1 (stereo not drawn) [Compound I-483]	2.75	2.41
COc1ccc(S(=O)(=O)N(CC(C)C)CC(O)C(Cc2ccc(N(C)Cc3ccc(F)cc3-c3sc4c(c3C(=O)O)CC(C)(C)CC4)cc2)NC(=O)OC2COC3(C)OCCC23)cc1 (stereo not drawn) [Compound I-491]	1.92	3.32
COc1ccc(S(=O)(=O)N(CC(C)C)CC(O)C(Cc2ccc(NCc3cc(OC)c(OC)cc3C(=O)Nc3sc4c(c3C(=O)O)CC(C)(C)CC4)cc2)NC(=O)OC2COC3(C)OCCC23)cc1 (stereo not drawn) [Compound I-541]	2.34	0.195
COc1ccc(S(=O)(=O)N(CC(C)C)CC(O)C(Cc2ccc(NCc3cc(F)ccc3C(=O)Nc3sc4c(c3C(=O)O)CC(C)(C)CC4)cc2)NC(=O)OC2COC3(C)OCCC23)cc1 (stereo not drawn) [Compound I-625]	5.07	0.0688
COc1ccc(S(=O)(=O)N(CC(C)C)CC(O)C(Cc2ccc(N(C)Cc3cc4c(cc3-c3sc5c(c3C(=O)O)CC(C)(C)CC5)OCCO4)cc2)NC(=O)OC2COC3(C)OCCC23)cc1 (stereo not drawn) [Compound I-704]	2.39	0.724
COc1ccc(S(=O)(=O)N(CC(C)C)CC(O)C(Cc2ccc(N(C)Cc3ccccc3C(=O)Nc3sc4c(c3C(=O)O)CC(C)(C)CC4)cc2)NC(=O)OC2COC3(C)OCCC23)cc1 (stereo not drawn) [Compound I-407]	3.77	0.31
